Results reported in PMC8969894 (Journal of medicinal chemistry, 2021).
Like-named read-outs stand apart in the source and are kept apart here.

Key:
Aqueous solubility = assay type: physicochemical; settings: aqueous medium (not further specified)
[1] = Rat plasma protein binding; assay type: in vitro ADME
MDCK-MDR1 cells = settings: cited from earlier work
[2] = rat liver microsomes; cited from earlier work
[3] = Metabolic stability in rat liver microsomes; assay type: in vitro ADME
Sprague-Dawley rats = assay: Locomotor activity; assay type: in vivo, rat; settings: 10 mg/kg i.p., 30 min, p > 0.05
[4] = system: panel of ~50 GPCRs (PDSP); settings: 10 μM; any of the receptors of the panel
[5] = In vivo pharmacokinetics in Sprague-Dawley rats; settings: male, rat, ip, 10 mg/kg

## O=C(Nc1ccc(Cl)cc1)Nc1cccc(-c2cccc(N3CCCC3)n2)c1 [Compound 2, 1-(4-chlorophenyl)-3-{3-[6-(pyrrolidin-1-yl)pyridin-2-yl]phenyl}urea]
Aqueous solubility
  solubility: < 0.5 µM
[1]
  fraction unbound: 0.001
MDCK-MDR1 cells
  Efflux BA/AB: 0.8
  Papp (A-to-B): 2.6 ± 0 x10^−6 cm/s
  Papp (B-to-A): 2.2 ± 0.1 x10^−6 cm/s
[2]
  %Qh (percentage of hepatic blood flow): 72.6%

## Cc1cccc(CCNC(=O)Nc2ccc(Cl)cc2)c1 [Compound 17, 3-(4-Chlorophenyl)-1-[2-(3-methylphenyl)ethyl]urea]
[3]
  %Qh (percentage of hepatic blood flow): 72.2%

## O=C(NCCc1cccc(Cl)c1)Nc1ccc(Cl)cc1 [Compound 31, 3-(4-Chlorophenyl)-1-[2-(3-chlorophenyl)ethyl]urea]
Sprague-Dawley rats
  locomotion: did not significantly affect locomotion
[4]
  inhibition at PDSP panel receptors: < 50 % inhibition
[5]; brain
  CL/F: 121 mL/min/kg
  half-life: 54 min
[5]; plasma
  half-life: 37.8 min

## O=C(NCCc1cccc(C(F)(F)F)c1)Nc1ccc(Cl)cc1 [Compound 34, 3-(4-Chlorophenyl)-1-{2-[3-(trifluoromethyl)phenyl]ethyl}urea]
[3]
  %Qh (percentage of hepatic blood flow): 69.8%
